According to patent US20060052457A1, “Use of ppar alpha agonists for the treatment of vascular and renal diseases” (priority 2002, published 2006):
Entries after “also recorded” stand apart in the source; their conditions may differ.

How the values were obtained:
H4IIE hepatoma cells [1] = assay: Basal DNA synthesis without mitogenic stimulation, quiescent H4IIE hepatoma cells; type: cell-based
Protocol: (§1) Quiescent SMCs (panel A) and H4IIE cells (panel B) were treated with PGJ2 and incorporation of thymidine was measured as previously described. Quiescent SMCs were also treated with WY-14643 (panel C) and incorporation of thymidine was measured. The data are presented as means±s.e. (n=3).

[2] = test system: porcine coronary artery smooth muscle cells; assay: Basal DNA synthesis without mitogenic stimulation, quiescent porcine coronary artery SMCs; type: cell-based; settings: for basal DNA synthesis in the absence of mitogenic stimulation: quiescent porcine coronary artery SMCs
Protocol: as §1

[3] = test system: porcine coronary artery smooth muscle cells; assay: [3H]thymidine incorporation (DNA synthesis) after PDGF stimulation, porcine coronary artery SMCs; type: cell-based; settings: PDGF 0.1 μg, 72 h
Protocol: (§2) SMCs were prepared by explant culture as previously described, grown in 24-well culture dishes to 70% confluence and then placed into serum-free DMEM supplemented with insulin, ascorbate, pyruvate and selenium for 5 days. These conditions result in the cessation of cell growth, and markers of the contractile state are expressed. The cells were subsequently treated with PDGF (0.1 μg) in the presence or absence of WY-14643, and 2 μCi/mL [^3H]thymidine were added to the culture medium 24 hours later. Seventy-two hours following PDGF treatment, incorporation of thymidine into trichloroacetate-precipitable material was measured. The data, which is presented as means±s.e. (n=3), are shown for porcine SMCs (panel A), human saphenous vein SMCs (panel B) and human internal mammary artery SMCs (panel C). All values have been normalized relative to the incorporation in unstimulated quiescent cells (control=100).
Quiescent SMCs were treated with PDGF (01. μg/ml) in the presence and absence of PGJ2, and incorporation of thymidine was measured as previously described. The data are presented as means±s.e. (n=3).
Quiescent SMCs were treated with PDGF (0.1 μg) in the presence or absence of clofibrate, and incorporation of thymidine was measured as previously described. The data are presented as means±s.e. (n=3).

[4] = test system: Porcine coronary arteries; assay: Organ culture model of restenosis (balloon angioplasty ex vivo, neointimal index); type: cell-based; settings: 250 μM continuous, 14 days in culture after balloon angioplasty ex vivo
Protocol: Porcine coronary arteries were subjected to balloon angioplasty ex vivo and placed into culture for 14 days. Treatment with WY-14643 (250 μM) was continuous over the entire time period. Subsequently, the vessel segments were sectioned and morphometry was employed to quantify the extent of restenosis. The neointimal index is defined as: neointimal area/medial area. The data are presented as means±s.e. (n=8). Control=no balloon angioplasty.

[5] = test system: human saphenous vein SMCs; assay: [3H]thymidine incorporation (DNA synthesis) after PDGF stimulation, human saphenous vein SMCs; type: cell-based; settings: PDGF 0.1 μg, 72 h
Protocol: as §2, with “C).” for “C). All values have been normalized relative to the incorporation in unstimulated quiescent cells (control=100).”

[6] = test system: human internal mammary artery SMCs; assay: [3H]thymidine incorporation (DNA synthesis) after PDGF stimulation, human internal mammary artery SMCs; type: cell-based; settings: PDGF 0.1 μg, 72 h
Protocol: as §2, with “C).” for “C). All values have been normalized relative to the incorporation in unstimulated quiescent cells (control=100).”

H4IIE hepatoma cells [7] = assay: [3H]thymidine incorporation (DNA synthesis) by H4IIE hepatoma cells after IGF-1; type: cell-based; settings: IGF-1 0.1 μM, 72 h
Protocol: H4IIE hepatoma cells were cultured and quiescent cells were prepared in 24-well culture dishes by placing the cells into serum-free α-MEM for 3 days. The cells were treated with IGF-1 (0.1 μM) in the presence or absence of WY-14643, and 2 μCi/mL [^3H]thymidine were added concurrent with the treatment. Seventy-two hours following treatment, the cells were lysed and thymidine incorporation was measured as described above. The data are presented as means+/−s.e. (n=3).

[8] = test system: human proximal tubule cells; assay: Growth (cell number, Coulter counter) of human proximal tubule cells; type: cell-based
Protocol: Human proximal tubule cells were purchased from Clonetics and propagated in 24-well culture dishes with Renal Epithelial Cell Basal medium (REBM) containing 0.5% fetal bovine serum (FBS). Treatments were added once the cells reached 40% confluence. Incubation was continued for 4 days, at which time the cells were detached by trypsinization and cell number measured with a Coulter counter. All comparisons are relative to a cell population treated with 5 μg/ml aphidicolin, a non-toxic inhibitor of cell proliferation. The data are presented as means+/−s.e. (n=6).

A10 smooth muscle cells = assay: [3H]thymidine incorporation (DNA synthesis) by A10 smooth muscle cells after PDGF or IGF-1; type: cell-based, rat; settings: A10 SMCs, 72 h
Protocol: […] were cultured and quiescent cells were prepared in 24-well culture dishes as described in the legend for FIG. 2. The cells were treated with PDGF (0.1 μg) or IGF-1 (0.1 μM) in the presence or absence of WY-14643, and 2 μCi/mL [^3H]thymidine were added to the medium concurrent with the mitogens. Seventy-two hours following treatment, the cells were lysed and thymidine incorporation was measured as described above. […] (n=3), for A10 cells treated with PDGF (panel A) and IGF-1 (panel B).

smooth muscle cells = assay: DNA synthesis by smooth muscle cells with PPAR-gamma agonists (FIG. 13); type: cell-based

CCCCC[C@H](O)/C=C/[C@H]1C(=O)C=C[C@@H]1C/C=C\CCCC(=O)O [PGJ2]
basal DNA synthesis in the absence of mitogenic stimulation (H4IIE hepatoma cells [1]): inhibits basal DNA synthesis
basal DNA synthesis in the absence of mitogenic stimulation [2]: inhibits basal DNA synthesis
DNA synthesis (thymidine incorporation) in response to PDGF stimulation [3]: inhibits DNA synthesis; also recorded: is inhibitory

Cc1cccc(Nc2cc(Cl)nc(SCC(=O)O)n2)c1C [WY-14643]
neointimal proliferation / restenosis (neointimal index) [4]: inhibits neointimal proliferation; also recorded: prevent restenosis
basal DNA synthesis in the absence of mitogenic stimulation [2]: has no effect
apparent toxicity / cytotoxicity (FIG. 9) ([2]; stated with reference to FIG. 9): without apparent toxicity
DNA synthesis (thymidine incorporation) in response to PDGF stimulation [5]: inhibited DNA synthesis
DNA synthesis (thymidine incorporation) in response to PDGF stimulation [6]: inhibited DNA synthesis
DNA synthesis in response to stimulation by IGF-1 (H4IIE hepatoma cells [7]): inhibits DNA synthesis; also recorded: prevented cell growth
DNA synthesis (thymidine incorporation) in response to PDGF stimulation [3]: inhibited DNA synthesis; also recorded: can inhibit smooth muscle cell proliferation
growth of human proximal tubule cells (cell number) ([8]; 4 days incubation, relative to aphidicolin 5 μg/ml): prevented cell growth; also recorded: effectively inhibits the growth
apparent toxicity in primary human renal proximal tubule cells ([8]; primary cultures): without apparent toxicity
DNA synthesis in response to IGF-1 stimulation (A10 smooth muscle cells; IGF-1 0.1 μM): does not inhibit DNA synthesis; also recorded: could not inhibit the growth
DNA synthesis in response to PDGF stimulation (A10 smooth muscle cells; PDGF 0.1 μg): does not inhibit DNA synthesis; also recorded: could not inhibit the growth

CCc1ccc(CCOc2ccc(CC3SC(=O)NC3=O)cc2)nc1 (stereo not drawn) [piaglitazone]
inhibition of DNA synthesis by smooth muscle cells (smooth muscle cells): are not
